Results taken from US11426375B2, “Substituted bisphenyl butanoic ester derivatives as NEP inhibitors” (NOVARTIS AG, priority 2019, dated 2022).
Like-named read-outs stand apart in the source and are kept apart here.

Tests used:
[1] = parameters: species or system Sprague Dawley rats; conditions: rat, in vivo, po, 10 mg/kg; for LBQ657 concentration-time profile / conversion to LBQ657: male, Sprague-Dawley
Procedure: A parallel study design consisting of four groups with three animals per group was conducted to examine the pharmacokinetic properties of the compounds of the present disclosure.
The drugs were administered to each group are as follows: compound I-1 (Group 1), compound I-2 (Group 2), compound I-3 (Group 3), and AHU377 (sacubitril) (Group 4). Each animal received a single 10 mg/kg (5 ml/kg) oral gavage dose of the specified study drug. The animal weights ranged from […] at the beginning of the study. Compound I-1, compound I-2, compound I-3, and AHU377 were formulated in 0.5% methylcellulose (400 cp) and 0.1% Tween 80 (w,v) in water was used as the vehicle. Water bath sonication was applied to facilitate dispersing for all four study drugs. Blood samples for pharmacokinetics analysis were collected at t=0.25, 0.5, 1, 2, 4, 8, and 24 hours (±5%) post dose administration. Plasma was prepared by collecting whole blood samples into tubes containing EDTA and NaF (final concentrations: ˜1 mg/mL (K2EDTA) and ˜2 mg/mL (NaF)). These tubes were kept in an ice bath prior to centrifugation at approximately 2,000 rcf for 10 minutes at approximately 5° C. To each resultant plasma sample, 50% phosphoric acid (v/v) was added to achieve a final concentration of 1% (v,v).
(§1) [^13C4]-LBQ657 was added as an internal standard to the pharmacokinetic (PK) samples and calibration standards prior to analysis by LC-MS/MS. The LC-MS system consisted of an API6500+ mass spectrometer coupled to an Agilent 1290 HPLC system equipped with a CTC Pal autosampler. The mass spectrometer was operated in the positive ion mode with a TESI ion source.

[2] = parameters: species or system Cynomolgus Monkeys; conditions: cynomolgus monkey, in vivo, po, 10 mg/kg
Procedure: A cross-over study design consisting of two groups with two animals per group was conducted to examine the pharmacokinetic properties of compound I-1 of the present disclosure.
Compound I-1 and AHU377 were administered to each group as follows: compound I-1 on Day 0 followed by AHU377 on Day 2 (Group 1), AHU377 on Day 0 followed by compound I-1 on Day 2 (Group 2). Each animal received a single 10 mg/kg (5 ml/kg) oral gavage dose of the specified study drug on the specified day. The animals were 2.5 to 3.5 years of age and weighed between 3.1 and 4.3 kg at the beginning of the study. Both compounds were formulated in 0.5% methylcellulose (400 cp) and 0.1% Tween 80 (w,v) in water. Blood samples for pharmacokinetics analysis were collected at t=0, 0.25, 0.5, 1, 2, 4, 8, 24 and 48 hours post dose on Day 0 and Day 2. Plasma was prepared by collecting whole blood samples into tubes containing K2EDTA and NaF (final concentrations: ˜1 mg/mL (K2EDTA) and ˜2 mg/mL (NaF)). These tubes were kept in an ice bath prior to centrifugation at approximately 2,000 rcf for 10 minutes at approximately 5° C. To each resultant plasma sample (target volume 200 μL), 4 μL of 50% phosphoric acid (v/v) was added.
as §1, with “mode.” for “mode with a TESI ion source.”

[3] = format: physicochemical; conditions: for degradation in solution: 1 day
Procedure: It was stable at pH of 4.7 and pH of 6.8 up to 70° C. for 3 days.

[4] = Hygroscopicity, weight gain at 90% RH; format: physicochemical; conditions: after exposure to 90% RH
Description: The weight gain of compound I-1 after exposure to 90% RH (relatively humidity) was 0.34%, while that of AHU377 under the same conditions was 3.4%. […] On the other hand, AHU377 is a wax-like solid, which needs to be properly processed before further pharmaceutical processing such as weighing, dispensing and filling.

[5] = Aqueous solubility by visual observation; format: physicochemical; conditions: water; based on visual observation
Procedure: The solubility value was more than about 500 mg/ml based on visual observation.

| Structure (SMILES) | tolerability [1] | tolerability [2] | degradation in solution ([3]; pH 2) [%] | degradation in solution ([3]; pH 4.7) [%] | solution stability under acidic conditions ([3]; pH 2) | weight gain (hygroscopicity) [4] [%] | LBQ657 concentration-time profile [1] | conversion to LBQ657 [1] | solubility [5] [mg/mL] |
| --- | --- | --- | --- | --- | --- | --- | --- | --- | --- |
| CCOC(=O)[C@H](C)C[C@@H](Cc1ccc(-c2ccccc2)cc1)NC(=O)CCC(=O)O [AHU377, 4-(((2S,4R)-1-([1,1′-biphenyl]-4-yl)-5-ethoxy-4-methyl-5-oxopentan-2-yl)amino)-4-oxobutanoic acid] | very well tolerated | well tolerated | 21.49 | 2.63 | unstable | 3.4 | – | – | – |
| CCOC(=O)[C@H](C)C[C@@H](Cc1ccc(-c2ccccc2)cc1)NC(=O)CCC(=O)N[C@@H](CCCCN)C(=O)O [Compound I-2, (4-(((2S,4R)-1-([1,1′-biphenyl]-4-yl)-5-ethoxy-4-methyl-5-oxopentan-2-yl)amino)-4-oxobutanoyl)-L-lysine] | very well tolerated | – | – | – | – | – | flattened relative to AHU377 | nearly complete conversion to LBQ657 | > 500 |
| CCOC(=O)[C@H](C)C[C@@H](Cc1ccc(-c2ccccc2)cc1)NC(=O)CCC(=O)N[C@@H](CCCCN)C(=O)OC(C)(C)C [Compound I-3, Tert-butyl (4-(((2S,4R)-1-([1,1′-biphenyl]-4-yl)-5-ethoxy-4-methyl-5-oxopentan-2-yl)amino)-4-oxobutanoyl)-L-lysinate] | very well tolerated | – | – | – | – | – | flattened relative to AHU377 | nearly complete conversion to LBQ657 | – |
